Values joined by “and” are separate entries in the source; they are usually repeats but may differ in a detail not shown here. Equal entries are not always repeated. Structures can show the parent of a compound that is named as a salt. Where two headings read alike, the source gives them in different places.

Series [1] can be described thus: Pharmacokinetic study in dogs, released DPTIP in plasma after IV or peroral dose. The class given is in vivo, male Beagle dogs. The procedure:
The PK studies in dogs were performed in accordance with the guidelines recommended by Pharmaron (San Diego, CA, USA) Institutional Animal Care and Use Committee. Briefly, male Beagle dogs 9 to 11 kg were obtained from the test facility’s colony of non-naïve animals. The animals were fasted overnight prior to dose administration and fed 4 h after dosing. The body weights were recorded and the animals were dosed with DPTIP, and prodrugs 2, 3, 4, 6, 7, 8, and 9 at 2 mg/kg equivalent of DPTIP as a single preoral dose PO (n = 2) with the exception of DPTIP IV dosed at 1 mg/kg (n = 1). All drugs were dissolved in the formulations (5% NMP, 5% Kolliphor, 30% PEG, and 60% water v/v) made freshly prior to dosing. The blood samples were collected via a cephalic vein at specified time points (0.083, 0.25, 0.5, 1, 2, 4, 6, 8, and 24 h) post-drug administration, and transferred into tubes containing sodium fluoride as a stabilizer (10 µL/mL of 500 µg/mL). The tubes were stored on wet ice until processed to plasma by centrifugation (3500× g at 4 °C for 10 min) within 30 min of collection. The plasma samples were transferred into individually labeled matrix tubes and stored at nominal −80 °C immediately (within 10 min of separation) until bioanalysis.
The quantification of the released DPTIP was performed using our previously published method with minor modifications. Briefly, calibration standards were prepared by spiking the DPTIP into naïve plasma from mice and dogs. All the calibration curves were constructed in the range of 1–3000 pmol/mL in the naïve sample-matched matrices in both the mouse and dog samples. Linear regression with 1/(nominal concentration) weighting factor was used for fitting the calibration curve. A correlation coefficient greater than 0.99 was considered acceptable in the analytical runs for all analyses.
The plasma samples from both mice and dogs were processed through simple protein precipitation. For this, 20 µL of plasma was mixed with 100 µL methanol containing 0.5 µM losartan (internal standards; IS) in low retention microcentrifuge tubes. All samples were vortex-mixed and centrifuged at 16,000× g for 5 min at 4 °C. A 50 µL of aliquot of supernatant was diluted with 50 µL of LC-MS water transferred to a 96-well polypropylene autosampler sealed with a Teflon cap. A volume of 2 µL was injected onto the ultra-performance liquid chromatography instrument for quantitative analysis using a temperature-controlled autosampler operating at 4 °C. Chromatographic separation was performed using a Thermo Scientific Vanquish ultra-high-performance system consisting of an analytical pump and coupled with a TSQ Altis mass spectrometer. The analytes were separated using an Agilent Eclipse Plus column (100 × 2.1 mm i.d, 1.8 μm) maintained at 35 °C. The (M+H)^+ ion transition of DPTIP (m/z 378.85 → 363.07, 200.05) and losartan (IS) (m/z 423.2 → 207.10, 180.88) were used. A gradient method was used with a mobile phase composition of 0.1% formic acid in acetonitrile and 0.1% formic acid in water.
The plasma concentrations (pmol/mL) for the mice were quantified, and plots of mean plasma concentration versus time were constructed using GraphPad Prism (10.3.0). Similarly, plasma concentrations (pmol/mL) for the dogs were measured and corresponding mean plasma concentration versus time plots were generated. The plasma concentrations in both mice and dogs were analyzed using a noncompartmental analysis method as implemented in the computer software program Phoenix WinNonlin version 8.4 (Certara USA Inc., Princeton, NJ, USA). The maximum plasma concentration (Cmax) and time to Cmax (Tmax) were the observed values. The area under the plasma concentration–time curve (AUC) values were calculated to the last quantifiable sample (AUC0–t) using the log-linear trapezoidal rule. The oral bioavailability was calculated by AUCPO divided by AUC IV with dose normalization. […]

Series [2] can be described thus: In vitro stability in human plasma. The class given is in vitro ADME. Particulars: 37 °C; for remaining at 1 h, 10 μM: human, 60 min, read-out: In Vitro Stability in Plasma (% Remaining at 60 min) Mean ± SEM (n = 3), Humans; for In Vitro Stability in Plasma (% Remaining at 60 min) Mean ± SEM (n = 3), Humans: 10 μM. The protocol: (§1) The in vitro metabolic stability analysis of DPTIP prodrugs was performed in the plasma of mice, dogs, and humans, as previously described. Briefly, for plasma stability, 1 mL of plasma was spiked with 10 μM of the respective prodrug followed by incubation in an orbital shaker at 37 °C for 1 h (in triplicate). The samples from each incubation at predetermined time points (0 and 60 min) was quenched with 3× volume of acetonitrile containing the internal standard (IS; losartan: 0.5 μM). The samples were vortex-mixed for 30 s and centrifuged at 10,000× g for 10 min at 4 °C. Compound disappearance over time was monitored via a Dionex ultra-high-performance LC system coupled with a Q Exactive Focus orbitrap mass spectrometer (Thermo Fisher Scientific Inc., Waltham, MA, USA). Quantification of the prodrugs was performed in full scan mode (from m/z 75 to 1125) by comparing t = 0 min samples with t = 60 min samples.

A further series relates to nSMase2. To be noted: cited from earlier work.
Series [3] is described as follows: In vitro stability in dog plasma. Particulars: 37 °C; for remaining at 1 h, 10 μM: dog, 60 min, read-out: In Vitro Stability in Plasma (% Remaining at 60 min) Mean ± SEM (n = 3), Dogs; for In Vitro Stability in Plasma (% Remaining at 60 min) Mean ± SEM (n = 3), Dogs: 10 μM. The series is classed as in vitro ADME. The procedure: as §1
On the set-up of series [4]: method as in PMID 35930706. Particulars: cited from earlier work; for Cmax / Tmax / t(1/2) / AUC0–t: released DPTIP in plasma, CES1−/− mice, PO 10 mg/kg DPTIP or equivalent, previously published.
On the set-up of series [5]: method as in PMID 30531925, PMID 30921693. To be noted: cited from earlier work.
A further series concerns rat brain nSMase2. Further details: method as in PMID 33395289. To be noted: cited from earlier work.
Series [6] can be described thus: Pharmacokinetic study in CES1−/− mice, released DPTIP in plasma after peroral dose. The series is classed as in vivo, C57BL/6 CES1−/− mice. To be noted: PO 10 mg/kg DPTIP equivalent. The procedure: In vivo mice PK studies were carried out as previously described. Briefly, mice PK studies were carried out in CES1^−/− mice according to protocols approved by the Animal Care and Use Committee at Johns Hopkins University. The C57BL/6 CES1^−/^− mice were received from the United States Army Medical Research Institute of Chemical Defense, Maryland, and maintained on a 12 h light−dark cycle with ad libitum access to food and water. Prodrugs 3, 4, 5, 6, 8, and 9 were administered at a dose of 10 mg/kg equivalent of DPTIP to CES1^−/− mice as a single peroral (PO) dose made fresh in formulation (5% DMSO, 10% tween, and 85% saline v/v/v) prior to dosing. […]
The quantification of the released DPTIP was performed using our previously published method with minor modifications. […]
The plasma samples from both mice and dogs were processed through simple protein precipitation. […] A volume of 2 µL was injected onto the ultra-performance liquid chromatography instrument for quantitative analysis using a temperature-controlled autosampler operating at 4 °C. […]
The plasma concentrations (pmol/mL) for the mice were quantified, and plots of mean plasma concentration versus time were constructed using GraphPad Prism (10.3.0). Similarly, plasma concentrations (pmol/mL) for the dogs were measured and corresponding mean plasma concentration versus time plots were generated. […]

Series [7] is described as follows: In vitro stability in mouse plasma. Particulars: CES1−/−, 37 °C, 60 min, read-out: In Vitro Stability in Plasma (% Remaining at 60 min) Mean ± SEM (n = 3), Mice. The class given is in vitro ADME. The procedure:
as §1

On the set-up of series [8]: method as in PMID 8593015. To be noted: valine ester prodrug, transport via PEPT1 in the intestine; cited from earlier work.

As to `COc1cc(-c2nc(-c3cccs3)c(-c3ccccc3)[nH]2)cc(OC)c1O` [DPTIP, 2,6-dimethoxy-4-(5-phenyl-4-(thiophen-2-yl)-1H-imidazol-2-yl)-phenol], the t(1/2) in series [1] (IV 1 mg/kg (n = 1), 1 mg/kg) is reported as 3.71 h; in [4] it was 0.46 h. Further, the clearance in series [1] (male, Beagle, dog, plasma, IV 1 mg/kg, read-out: clearance (CL)) stood at 12 mL/min/kg. In addition, the C0 in [1] (male, Beagle, dog, plasma, IV 1 mg/kg, read-out: initial plasma concentration (C0)) came out at 2500 nM. Moreover, in series [1] (male, Beagle, dog, plasma, IV 1 mg/kg, read-out: volume of distribution (Vd)), the Vd came to 3.8 L/kg. For the same compound, the half-life in series [1] (male, Beagle, dog, plasma, iv, 1 mg/kg, IV 1 mg/kg (n = 1)) was 3.7 h; in series [5] (mice), less than 0.5 h. The AUC(0-t) was determined as 3.9 µM·h in [1] (male, Beagle, dog, plasma, iv, 1 mg/kg, IV 1 mg/kg, read-out: exposures (AUC0–t)) and 7.81 µM·h in series [1] (male, Beagle, dog, plasma, iv, 1 mg/kg, IV 1 mg/kg, value dose adjusted to 2 mg/kg, read-out: AUC0–t). The Cmax in series [1] (male, Beagle, dog, plasma, iv, 1 mg/kg, IV 1 mg/kg, read-out: maximum plasma concentration (Cmax)) is 2400 nM; in series [1] (male, Beagle, dog, plasma, iv, 1 mg/kg, IV 1 mg/kg, value dose adjusted to 2 mg/kg, read-out: Cmax) it was 4800 nM; in [4] it was 307 ± 93.9 nM. In addition, the fraction remaining at 1 h, 10 μM in series [2] and in series [3] was more than 90% each time. In the series with nSMase2, the IC50 is 30 nM. Besides, in series [4], the Tmax is given as 0.25 h. In addition, the “half-life (t1/2)” value in [5] (as given in abstract) is not above 0.5 h. In series [5] (mice), the “oral bioavailability (%F)” value is on record as less than 5%.

Regarding `O=C(/C=C/c1ccc(/C=C/C(=O)Nc2ccc(C3=NCCN3)cc2)cc1)Nc1ccc(C2=NCCN2)cc1` [GW4869], the IC50 in the series on rat brain nSMase2 is 1000 nM.

As to `COc1cc(-c2nc(-c3ccccc3)c(-c3cccs3)[nH]2)cc(OC)c1OC(=O)N1CCC(N2CCCCC2)CC1` [Prodrug 2], in series [2], the amount remaining at 1 h, 10 μM is more than 90%. The share remaining at 1 h, 10 μM in series [3] is more than 90%. Also, in [4], the “AUC0–t” value is reported as 273 ± 36.8 pmol·h/mL, the Cmax is 149 ± 9.9 nM, the Tmax was 1 h and the “t(1/2)” value is recorded as 1.4 h.

For `CCCCCC(=O)Oc1c(OC)cc(-c2nc(-c3ccccc3)c(-c3cccs3)[nH]2)cc1OC` [Prodrug 3], in series [2], the “In Vitro Stability in Plasma (% Remaining at 60 min) Mean ± SEM (n = 3), Humans” value turned out to be 79.3 ± 1.4% and the fraction remaining at 1 h, 10 μM is approximately 80%. For the same compound, in series [3], the “In Vitro Stability in Plasma (% Remaining at 60 min) Mean ± SEM (n = 3), Dogs” value amounted to 62.9 ± 7.2% and the amount remaining at 1 h, 10 μM is approximately 60%. Further, the “fold increase in DPTIP half-life compared to DPTIP” value in series [6] was “no significant improvement”.

Turning to `COc1cc(-c2nc(-c3ccccc3)c(-c3cccs3)[nH]2)cc(OC)c1OC(=O)N(C)C` [Prodrug 4], the fraction remaining at 1 h, 10 μM in series [2] and in series [3] was more than 90% throughout.

Regarding `COc1cc(-c2nc(-c3ccccc3)c(-c3cccs3)[nH]2)cc(OC)c1OCOP(=O)(O)O` [Prodrug 6], the amount remaining at 1 h, 10 μM in [2] and in series [3] was more than 90% throughout. Also, the “fold increase in DPTIP half-life compared to DPTIP” value in [6] is listed as “no significant improvement”.

`CCC1CC(N2CCCCC2)CC(CC)N1C(=O)Oc1c(OC)cc(-c2nc(-c3ccccc3)c(-c3cccs3)[nH]2)cc1OC` (stereo not drawn) [Prodrug 7]: in [2], the share remaining at 1 h, 10 μM was more than 90%. In addition, the amount remaining at 1 h, 10 μM in series [3] is more than 90%. The “fold increase in DPTIP plasma exposure (AUC0–t) compared to DPTIP” value in series [4] (mice, PO) was > 4 fold and 4 fold. For the same compound, in series [4], the “AUC0–t” value is 1047 ± 101 ^α pmol·h/mL, the Cmax was 191 ± 39.6 nM, the Tmax is 2 h and the “t(1/2)” value is given as 2.7 h.

Take `COc1cc(-c2nc(-c3ccccc3)c(-c3cccs3)[nH]2)cc(OC)c1OC(=O)[C@@H](N)C(C)C` [Prodrug 8, 2,6-Dimethoxy-4-(4-phenyl-5-(thiophen-2-yl)-1H-imidazol-2-yl) phenyl L-valinate hydrochloride]: the fraction remaining at 1 h, 10 μM in series [2] and in [3] was approximately 0% each time.

For the compound `COc1cc(-c2nc(-c3ccccc3)c(-c3cccs3)[nH]2)cc(OC)c1OC(=O)[C@@H](NC(=O)[C@@H](N)C(C)C)C(C)C` [Prodrug 9], the “In Vitro Stability in Plasma (% Remaining at 60 min) Mean ± SEM (n = 3), Humans” value in series [2] was determined as 76.4 ± 1.4%. Besides, the “In Vitro Stability in Plasma (% Remaining at 60 min) Mean ± SEM (n = 3), Dogs” value in [3] is given as 76.3 ± 1.8%. Besides, the share remaining at 1 h, 10 μM in series [7] lay within 40 to 77%.

Turning to `CC(C)[C@H](N)C(=O)OCCOCn1cnc2c(=O)[nH]c(N)nc21` [valacyclovir], in series [8], the “fold increase in oral bioavailability” value was 3–5 fold.

The record behind these values is paper PMC11768932, “Pharmacokinetic Evaluation of Neutral Sphinghomyelinase2 (nSMase2) Inhibitor Prodrugs in Mice and Dogs” (Pharmaceutics, 2024).
